18 compounds from patent US8962626B2, “Thienopyridazine compounds, their preparations, pharmaceutical compositions and uses” (Zhejiang Medicine Co., Ltd. Xinchang Pharmaceutical Factory, priority 2008, dated 2015) can be followed below.

One data set deals with Mouse lung cancer (3LL). Nature of the data set: Cytotoxicity in vitro, SRB and MTT methods, 72 h. The data set is classed as cell-based. As to conditions: 3LL cells, read-out: Anti-cancer Activity IC50 In vitro, 3LL. Here is the method: (§1) Some of the above compounds are tested in vitro and in vivo for their antitumor activities. Among these tests, the cytotoxicity is tested in vitro using SRB and MTT methods for 72 h.

Another data set concerns Human colon cancer HT-29. Nature of the data set: Cytotoxicity in vitro, SRB and MTT methods, 72 h. The data set is classed as cell-based. The conditions noted are these: HT-29 cells, read-out: Anti-cancer Activity IC50 In vitro, HT-29. The procedure:
as §1

Data set [1] relates to Human poorly differentiated gastric adenocarcinoma (BGC-823). Nature of the data set: Cytotoxicity in vitro, SRB and MTT methods, 72 h. The conditions noted are these: BGC-823 cells, read-out: Anti-cancer Activity IC50 In vitro, BGC-823. The data set is classed as cell-based. Here is the method: as §1
Data set [2] concerns Human ovarian cancer (A2780). Nature of the data set: Cytotoxicity in vitro, SRB and MTT methods, 72 h. The format is cell-based. The conditions noted are these: A2780 cells, read-out: Anti-cancer Activity IC50 In vitro, A2780. The procedure:
as §1

Data set [3] relates to transplanted tumor of human colon cancer HT-99. Nature of the data set: Efficacy on transplanted tumor of human colon cancer HT-99 on nude mice. The data set is classed as in vivo. The conditions noted are these: compounds 60 mg/kg ip d0,1, GCT 20, ADR 4 mg/kg ip, combinations GCT or CPT-11 20 / ADR 4 ip + compound 25 mg/kg iv; for RTV (relative tumor volume) X ± SD / T/C: 17th day; for TV dn: dn = 17th day after administration.

A further data set has as its system mouse S180 sarcoma. Nature of the data set: Growth inhibition effect on mouse S180 sarcoma. The format is in vivo. As to conditions: mouse S180, 50 mg/kg ip; for Rate of inhibition: N = 7; for Body Weight without Tumor / Ending Body Weight / Tumor Weight / Starting Body Weight: N = 7, X ± SD; for Starting Body Weight: baseline.

Like-named read-outs stand apart in the source and are kept apart here. Bounds are passed on as bounds.

On to `NC(=O)c1nnc(Cc2cccnc2)c2cc(-c3ccc(F)cc3)sc12` [XXXVIII, 2-(4-fluorophenyl)-4-(3-pyridinemethyl)-thieno[2,3-d]pyridazinyl-7-formamide], for which the IC50 was 3.13 µM in the data set on Mouse lung cancer (3LL) (Mus musculus, 3LL); 1.33 µM with Human colon cancer HT-29 (Homo sapiens, HT-29, 72 h); 8.17 µM in data set [1] (Homo sapiens, BGC-823, 72 h); 3.13 µM in data set [2] (Homo sapiens, A2780, 72 h).

As to `COc1cccc2c1C(=O)c1c(O)c3c(c(O)c1C2=O)C[C@@](O)(C(=O)CO)C[C@@H]3O[C@H]1C[C@H](N)[C@H](O)[C@H](C)O1` [ADR, Adriamycin], in data set [3], the “RTV (relative tumor volume) X ± SD” value worked out at 4.38 ± 1.38, the T/C is 64% and the TV dn stood at 667 ± 67 mm^3.

As to “2-(4-bromophenyl)-4-(3-α-thiopyranmethyl)-thieno[2,3-d]pyridazinyl-7-formamide [XXXXVI]”, the 50% inhibitory concentration (IC50) in the data set on Mouse lung cancer (3LL) is more than 100 µM; with Human colon cancer HT-29 it was more than 100 µM; in data set [1], 11.1 µM; in data set [2], 30.3 µM.

As to `NC(=O)c1nnc(CC2CCOC2)c2cc(-c3ccc(F)cc3)sc12` (stereo not drawn) [XXIII, 2-(4-fluorophenyl)-4-(3-tetrahydrofuranmethyl)-thieno[2,3-d]pyridazinyl-7-formamide], the IC50 was more than 100 µM in the data set on Mouse lung cancer (3LL) (Mus musculus, 3LL); 5.57 µM with Human colon cancer HT-29 (Homo sapiens, HT-29, 72 h); more than 100 µM in data set [1] (Homo sapiens, BGC-823, 72 h); more than 100 µM in data set [2] (Homo sapiens, A2780, 72 h).

Consider `Nc1ccn([C@@H]2O[C@H](CO)[C@@H](O)C2(F)F)c(=O)n1` [GCT, Gemcitabine], for which, in data set [3], the “RTV (relative tumor volume) X ± SD” value is given as 1.64 ± 0.44, the T/C is reported as 37% and the TV dn was 463 ± 74 mm^3.

Turning to `NC(=O)c1nnc(CC2CCCNC2)c2cc(-c3ccc(Cl)cc3)sc12` (stereo not drawn) [XIII, 2-(4-chlorophenyl)-4-(R-3-piperidinemethyl)-thieno[2,3-d]pyridazinyl-7-formamide], the 50% inhibitory concentration (IC50) in the data set on Mouse lung cancer (3LL) amounted to 1.24 µM; with Human colon cancer HT-29, 0.73 µM; in data set [1] (Homo sapiens, BGC-823, 72 h) it was 2.62 µM; in data set [2] it was 1.18 µM.

For the compound `NC(=O)c1nnc(CC2CCNCC2)c2cc(-c3ccc(Cl)cc3)sc12` [XI, 2-(4-chlorophenyl)-4-(4-piperidinemethyl)-thieno[2,3-d]pyridazinyl-7-formamide], the IC50 amounted to 8.43 µM in the data set on Mouse lung cancer (3LL) (Mus musculus, 3LL); 10.7 µM in the data set on Human colon cancer HT-29 (Homo sapiens, HT-29, 72 h); 9.24 µM in data set [1] (Homo sapiens, BGC-823, 72 h); 11.8 µM in data set [2] (Homo sapiens, A2780, 72 h).

Consider `CN(C)C(=O)c1nnc(Cc2ccoc2)c2cc(-c3ccc(Cl)cc3)sc12` [XXXXXXX, 2-(4-chlorophenyl)-4-(3-furanmethyl)-thieno[2,3-d]pyridazinyl-7-N,N-dimethyl formamide], for which the IC50 was more than 100 µM in the data set with Mouse lung cancer (3LL) (Mus musculus, 3LL); more than 100 µM with Human colon cancer HT-29 (Homo sapiens, HT-29, 72 h); 5.45 µM in data set [1] (Homo sapiens, BGC-823, 72 h); more than 100 µM in data set [2] (Homo sapiens, A2780, 72 h).

Turning to `NC(=O)c1nnc(CC2CCOC2)c2cc(-c3ccc(Cl)cc3)sc12` (stereo not drawn) [XXIV, 2-(4-chlorophenyl)-4-(3-tetrahydrofuranmethyl)-thieno[2,3-d]pyridazinyl-7-formamide], in the data set on mouse S180 sarcoma, the Rate of inhibition was 45.45%, the “Body Weight without Tumor” value is 21.56 ± 1.48 g, the “Ending Body Weight” value is recorded as 23.18 ± 1.66 g and the “Tumor Weight” value stood at 1.62 ± 0.26 g. Also, the “Starting Body Weight” value with mouse S180 sarcoma came to 19.39 ± 0.60 g.

With `CN(C)C(=O)c1nnc(CC2CCCNC2)c2cc(-c3ccc(Cl)cc3)sc12` (stereo not drawn) [XV, 2-(4-chlorophenyl)-4-(3-piperidinemethyl)-thieno[2,3-d]pyridazinyl-7-N,N-dimethyl formamide], in data set [1] (Homo sapiens, BGC-823, 72 h), the IC50 was 2.25 µM.

Consider `CNC(=O)c1nnc(CC2CCCNC2)c2cc(-c3ccc(Cl)cc3)sc12` (stereo not drawn) [XIV, 2-(4-chlorophenyl)-4-(3-piperidinemethyl)-thieno[2,3-d]pyridazinyl-7-N-methyl formamide], for which the IC50 amounted to 8.59 µM in the data set with Mouse lung cancer (3LL) (Mus musculus, 3LL); 16.8 µM with Human colon cancer HT-29 (Homo sapiens, HT-29, 72 h); 30.5 µM in data set [1] (Homo sapiens, BGC-823, 72 h); 6.01 µM in data set [2] (Homo sapiens, A2780, 72 h).

Turning to `NC(=O)c1nnc(CC2CCNC2)c2cc(-c3ccc(F)cc3)sc12` (stereo not drawn) [Compound XX, 2-(4-fluorophenyl)-4-(3-pyrrolidinemethyl)-thieno[2,3-d]pyridazinyl-7-formamide], in the data set with mouse S180 sarcoma, the Rate of inhibition is reported as 37.23%, the “Body Weight without Tumor” value is reported as 19.33 ± 1.60 g, the “Ending Body Weight” value turned out to be 21.19 ± 1.40 g and the “Tumor Weight” value was 1.86 ± 0.26 g. The “Starting Body Weight” value in the data set on mouse S180 sarcoma was found to be 19.50 ± 0.89 g.

For the compound `CNC(=O)c1nnc(Cc2ccoc2)c2cc(-c3ccc(Cl)cc3)sc12` [XXXXXXIX, 2-(4-chlorophenyl)-4-(3-furanmethyl)-thieno[2,3-d]pyridazinyl-7-N-methyl formamide], the IC50 in the data set with Mouse lung cancer (3LL) (Mus musculus, 3LL) came to 3.31 µM; in the data set on Human colon cancer HT-29 (Homo sapiens, HT-29, 72 h), 9.48 µM; in data set [1] (Homo sapiens, BGC-823, 72 h), 17 µM; in data set [2] (Homo sapiens, A2780, 72 h), 7.11 µM.

On to `NC(=O)c1nnc(Cc2ccoc2)c2cc(-c3ccc(F)cc3)sc12` [XXXXXVIII, 2-(4-fluorophenyl)-4-(3-furanmethyl)-thieno[2,3-d]pyridazinyl-7-formamide], for which the IC50 was determined as 21.4 µM with Mouse lung cancer (3LL) (Mus musculus, 3LL); 21.8 µM in the data set with Human colon cancer HT-29 (Homo sapiens, HT-29, 72 h); 16.4 µM in data set [1] (Homo sapiens, BGC-823, 72 h); 13.9 µM in data set [2] (Homo sapiens, A2780, 72 h).

Regarding `NC(=O)c1nnc(CC2CCSC2)c2cc(-c3ccc(F)cc3)sc12` (stereo not drawn) [XXVI, 2-(4-fluorophenyl)-4-(3-tetrahydrothiophenemethyl)-thieno[2,3-d]pyridazinyl-7-formamide], the IC50 is more than 100 µM in the data set on Mouse lung cancer (3LL) (Mus musculus, 3LL); more than 100 µM in the data set on Human colon cancer HT-29 (Homo sapiens, HT-29, 72 h); 24.6 µM in data set [1] (Homo sapiens, BGC-823, 72 h); more than 100 µM in data set [2] (Homo sapiens, A2780, 72 h).

As for `NC(=O)c1nnc(CC2CCNC2)c2cc(-c3ccc(Cl)cc3)sc12` (stereo not drawn) [XXI, 2-(4-chlorophenyl)-4-(3-pyrrolidinemethyl)-thieno[2,3-d]pyridazinyl-7-formamide], in the data set with Human colon cancer HT-29 (Homo sapiens, HT-29, 72 h), the half-maximal inhibitory concentration (IC50) stood at 8.68 µM.

Consider `CNC(=O)c1nnc(CC2CCSC2)c2cc(-c3ccc(Cl)cc3)sc12` (stereo not drawn) [XXXIV, 2-(4-chlorophenyl)-4-(3-tetrahydrothiophenemethyl)-thieno[2,3-d]pyridazinyl-7-N-methyl formamide], for which the IC50 with Mouse lung cancer (3LL) (Mus musculus, 3LL) is 50.6 µM; with Human colon cancer HT-29 (Homo sapiens, HT-29, 72 h) it was more than 100 µM; in data set [1] (Homo sapiens, BGC-823, 72 h), 74.5 µM; in data set [2] (Homo sapiens, A2780, 72 h), more than 100 µM.

On to `NC(=O)c1nnc(CC2CCCNC2)c2cc(-c3ccc(F)cc3)sc12` (stereo not drawn) [Compound I, 2-(4-fluorophenyl)-4-(3-piperidinemethyl)-thieno[2,3-d]pyridazinyl-7-formamide], for which the IC50 in the data set with Mouse lung cancer (3LL) (Mus musculus, 3LL) is 1.4 µM; with Human colon cancer HT-29 (Homo sapiens, HT-29, 72 h), 4.22 µM; in data set [1] (Homo sapiens, BGC-823, 72 h), 3.35 µM; in data set [2] (Homo sapiens, A2780, 72 h), 6.4 µM.
